According to patent US20230140522A1, “COMPOSITION FOR AMELIORATING OR PREVENTING DECREASES IN BONE STRENGTH” (priority 2020, published 2023):

Key:
[1] = system: osteoprogenitor cell MC3T3-E1; assay: Alkaline phosphatase (osteoblast differentiation marker) activity after ornithine addition, MC3T3-E1; format: cell-based; conditions: 7 days culture, vs no addition of ornithine
Description: The cells were placed in a T-75 flask using a medium and cultured in a CO2 incubator (5% CO2, 37° C.). The medium was changed every other day, and the cells were collected when they reached 80% confluence and used for the test.
(§1) The cells were adjusted with medium to 1.2x10^5 cells/0.2 mL/well and seeded in a 48-well plate. […] After culturing for 7 days, the cells were washed once with PBS for ALP activity measurement and then cryopreserved together with the plate. In addition, after culturing for 14 days, the culture supernatant was sampled for measurement of the amount of osteocalcin used in the below-mentioned Experimental Example 2, and cryopreserved. The test was performed with n=5 and the medium was changed every 3-4 days.
The cells were washed with PBS and lysed with 60 µL/well of cell lysing agent (Cell-LyEX1 containing 2 mM PMSF). After stirring the plate at room temperature for 30 min, the supernatant was diluted 5-fold and the obtained solution was used as a sample for measurement. ALP activity in the cells was measured by LabAssay ALP. With this kit, ALP activity was measured from the amount of p-nitrophenol per unit amount of protein produced within a given period of time. The amount of protein in the solution was measured using Micro BCA Protein Assay Reagent Kit.
(§2) The test was a two-sided test with Student’s t-test, and P<0.05 (less than 5% of null hypothesis) or more was judged as significant difference. The data in the graph is shown in mean±standard error.

[2] = system: osteoprogenitor cell MC3T3-E1; assay: Osteocalcin (osteoblast differentiation marker) production amount after ornithine addition, MC3T3-E1; format: cell-based; conditions: ornithine 5.0 mg/mL, 14 days culture, culture supernatant, vs no addition of ornithine
Description: as §1
For the measurement of the amount of osteocalcin in the culture supernatant, the supernatant was diluted 10-fold and the measurement was performed using Mouse Osteocalcin EIA kit.
as §2

[3] = system: osteoprogenitor cell MC3T3-E1; assay: Alkaline phosphatase activity after ornithine addition, MC3T3-E1, influence of BMP-2 concentration; format: cell-based; conditions: ornithine 5 mg/mL, 7 days, vs ornithine no addition
Description: The cells were placed in a 10 cm petri dish using a medium and cultured in a CO2 incubator (5% CO2, 37° C.). The medium was changed every other day, and the cells were collected when they reached 80% confluence and used for the test.
The cells were adjusted with medium to 1.2x10^5 cells/0.2 mL/well and seeded in a 48-well plate. […] After 7 days, the cells were washed once with PBS, 50 µL of 0.1% Triton-X was added, and the mixture was further sonicated for 1 min to prepare a cell lysate. The test was performed with n=4 and the medium was changed every 3-4 days.
ALP activity of the above-mentioned cell lysate was measured by LabAssay ALP. With this kit, ALP activity was measured from the amount of p-nitrophenol per unit amount of protein produced within a given period of time. The amount of protein in the solution was measured using Micro BCA Protein Assay Reagent Kit.
as §2

[4] = system: osteoclast progenitor cell RAW264; assay: Osteoclast number measurement (TRAP staining) after ornithine addition, RAW264; format: cell-based; conditions: 50 ng/mL RANKL, 7 days, vs ornithine non-addition
Description: The cells were placed in a T-75 flask using a medium and cultured in a CO2 incubator (5% CO2, 37° C.). The medium was changed every other day, and the cells were collected when they reached 80% confluence and used for the test. Cells were prepared in a test medium at 3x10^3 cells/0.1 mL/well and seeded in a 96 well plate. […] After culturing for 7 days, TRAP staining was performed, and TRAP staining-positive and multinucleated cells were counted, based on which the ability to suppress differentiation into osteoclasts was examined by comparison. The medium was changed every 3-4 days. The test was performed with n=5. The test was a two-sided test with Student’s t-test, and P<0.05 (less than 5% of null hypothesis) or more was judged as significant difference. The data in the graph is shown in mean±standard error.

[5] = system: osteoporosis-disuse muscle atrophy simultaneous onset mouse model; assay: Gastrocnemius muscle weight, osteoporosis-disuse muscle atrophy simultaneous onset mouse model; format: in vivo; conditions: OVX mice with cast fixation, ornithine 1% blended feed, vs OVX (ornithine non-administration with cast fixation) group

Question: What does the source list for Cl.NCCC[C@H](N)C(=O)O [ornithine, L-Ornithine Monohydrochloride]?
Answer: alkaline phosphatase activity ([1]; ornithine 0.2 mg/mL): significantly increased; alkaline phosphatase activity ([1]; ornithine 1.0 mg/mL): significantly increased; alkaline phosphatase activity ([1]; ornithine 5.0 mg/mL): significantly increased; osteocalcin production amount [2]: significantly increased; alkaline phosphatase activity ([3]; BMP-2 50 ng/mL): significantly increased; alkaline phosphatase activity ([3]; BMP-2 100 ng/mL): significantly increased; alkaline phosphatase activity ([3]; BMP-2 200 ng/mL): significantly increased; number of osteoclasts ([4]; ornithine 0.02 mg/mL): decreased; number of osteoclasts ([4]; ornithine 0.1 mg/mL): significantly decreased; number of osteoclasts ([4]; ornithine 0.5 mg/mL): significantly decreased; gastrocnemius muscle weight (per body weight) [5]: increased
